Earlier results in patent US11389471B2, “Systems and methods to improve organ or tissue function and organ or tissue transplant longevity” (Proterris Inc., priority 2014, dated 2022).

Conditions: CO alveolar concentration of 25 ppm; CFK equation

[C-]#[O+] [CO, carbon monoxide]
time to reach an equilibration point: about 20 hours
